Test results reported in patent US20060110407A1 (priority 2001, published 2006).

What was measured:
Vaccinia strain IHD-J = system: Vaccinia strain IHD-J; design: species or system Balb/c mice; conditions: mouse, in vivo
[1] = system: camelpox, cowpox, monkeypox, and vaccinia viruses; conditions: cited from earlier work

## Nc1ccn(C[C@@H](CO)OCP(=O)(O)O)c(=O)n1 [Cidofovir ™, Cidofovir]
Vaccinia strain IHD-J
  Mean (number of pocks per tail): 24.2
  Mean difference compared to negative control (Saline): −17.7
[1]
  effectiveness in treating Orthopoxvirus infections: effective

## COc1c(C)c2c(c(O)c1C/C=C(\C)CCC(=O)O)C(=O)OC2 [mycophenolic acid]
[1]
  effectiveness in treating Orthopoxvirus infections: effective

## NC(=O)c1ncn([C@@H]2O[C@H](CO)[C@@H](O)[C@H]2O)n1 [ribavirin]
[1]
  effectiveness in treating Orthopoxvirus infections: effective

## CC(=O)OCC(CCn1cnc2cnc(N)nc21)COC(C)=O [famciclovir]
[1]
  effectiveness in treating Orthopoxvirus infections: effective

## Nc1nc2c(ncn2CCC(CO)CO)c(=O)[nH]1 [penciclovir]
[1]
  effectiveness in treating Orthopoxvirus infections: effective
